Where a name gives a salt, the structure may show the parent alone.
Legend:
[1] = target: T1, flTau aggregates (longest isoform of human Tau, 2N4R) (Homo sapiens, UniProt P10636); test: Full-length Tau (flTau) disaggregation assay by Thioflavin T (ThT); format: biochemical; conditions: ThT fluorescence; 60 nM flTau aggregates, 30 minutes at RT; read-out: flTau disaggregation EC50
T1 construct: 35 μM of recombinant full-length (fl) Tau in phosphate-buffered saline (PBS) were aggregated; purchased Biotechne; host or cells: bacteria
Experimental: Full-Length Tau (flTau) Disaggregation Assay by Thioflavin T (ThT)
The longest isoform of human Tau (2N4R; 441 amino acids) was expressed in bacteria and purified (Biotechne). For the Tau disaggregation assay by ThT, 35 μM of recombinant full-length (fl) Tau in phosphate-buffered saline (PBS) were aggregated for 72 hours at 37° C. in presence of 35 μM of heparin (Sigma-Aldrich) and 10 mM of […] (Sigma-Aldrich) under shaking at 1000 RPM. Compound 1 was dissolved in anhydrous dimethyl sulfoxide (DMSO, Sigma-Aldrich) to reach a concentration of 2.5 mM. flTau aggregates and serial dilutions of compound 1 were mixed together in PBS (volume 50 μL) to a final concentration of 60 nM of flTau aggregates and from 20 to 0.0012 μM of Compound 1. The mixture was incubated for 30 minutes at room temperature (RT), then 40 μL of this mixture were transferred into a black 384-well plate assay (Perkin-Elmer) and mixed with 10 μL of 20 μM ThT in 250 mM glycine (both from Sigma-Aldrich) in PBS. Fluorescence (relative fluorescence units; RFU) was measured in monoplicate or duplicate on a Tecan reader (excitation: 440 nm; emission: 485 nm). Percentage of flTau disaggregation was then calculated and the half maximal effective concentration (EC50) was determined using GraphPad Prism version 8 (GraphPad Software) assuming a one-binding site fitting model, see Table 3 and Table 4.

[2] = target: T2, Tau K18 fragment aggregates (amino acids 244 to 372 of human Tau441) (Homo sapiens, UniProt P10636); test: Tau K18 disaggregation assay by ThT; format: biochemical; conditions: ThT fluorescence; 2 μM K18 aggregates, 30 minutes at RT
T2 construct: encompassing amino acids 244 to 372 of the longest isoform (2N4R) of human Tau441; purchased Biotechne; host or cells: bacteria
Experimental: Tau K18 Disaggregation Assay by ThT
The Tau K18 fragment, encompassing amino acids 244 to 372 of the longest isoform (2N4R) of human Tau441, was expressed in bacteria and purified (Biotechne). For the K18 disaggregation assay by ThT, 35 μM of recombinant K18 in PBS were aggregated for 24 hours at 37° C. in presence of 25 μM of heparin (Sigma-Aldrich) and 10 mM of 1,4-Dithiothreito (DTT from Sigma-Aldrich) under shaking at 750 RPM. Compound 1 was dissolved in anhydrous dimethyl sulfoxide (DMSO, Sigma-Aldrich) to reach a concentration of 10 mM. K18 aggregates and serial dilutions of compounds were mixed together in PBS (volume 50 μL) to a final concentration of 2 μM of K18 aggregates and from 400 to 0.1 μM of Compound 1. The mixture was incubated for 30 minutes at room temperature (RT), then 40 μL of this mixture were transferred into a black 384-well plate assay (Perkin-Elmer) and mixed with 10 μL of 100 μM ThT in 250 mM glycine (both from Sigma-Aldrich) in PBS. Fluorescence (relative fluorescence units; RFU) was measured in monoplicate or duplicate on a Tecan reader (excitation: 440 nm; emission: 485 nm). Percentage of K18 disaggregation was then calculated and half maximal effective concentration (EC50) was determined using GraphPad Prism version 8 (GraphPad Software) assuming a one-binding site fitting model, see Table 3 and Table 4.

T2 sequence (P10636 561-689): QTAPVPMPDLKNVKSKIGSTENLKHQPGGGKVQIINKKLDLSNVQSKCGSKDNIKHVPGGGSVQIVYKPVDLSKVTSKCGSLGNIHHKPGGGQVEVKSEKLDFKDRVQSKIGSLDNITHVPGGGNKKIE
T1 sequence (P10636 1-441 isoform P10636-8): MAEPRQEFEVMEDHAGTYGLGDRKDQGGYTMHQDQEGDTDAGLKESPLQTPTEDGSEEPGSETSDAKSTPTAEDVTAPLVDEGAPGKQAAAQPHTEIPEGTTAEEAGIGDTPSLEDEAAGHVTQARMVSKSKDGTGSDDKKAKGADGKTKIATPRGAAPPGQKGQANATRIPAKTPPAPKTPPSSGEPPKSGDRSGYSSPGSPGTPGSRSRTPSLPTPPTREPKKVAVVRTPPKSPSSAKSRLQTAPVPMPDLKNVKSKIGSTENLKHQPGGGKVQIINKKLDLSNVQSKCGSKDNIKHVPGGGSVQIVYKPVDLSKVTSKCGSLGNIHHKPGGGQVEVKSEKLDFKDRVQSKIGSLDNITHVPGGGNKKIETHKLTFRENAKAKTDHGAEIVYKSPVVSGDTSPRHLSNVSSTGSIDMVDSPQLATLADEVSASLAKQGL

SMILES	EC50 [1]	EC50 [2]
c1ccc2c(C3CCN(c4cnc5nc(N6CCOCC6)oc5c4)CC3)n[nH]c2c1 [Example 47, 6-(4-(1H-indazol-3-yl)piperidin-1-yl)-2-morpholinooxazolo[4,5-b]pyridine]	1 to 10 µM	10 to 50 µM
Cn1cc(C2CCN(c3ccc4oc(N5CCOCC5)nc4c3)CC2)c2cc(F)ccc21 [Example 51, 5-(4-(5-fluoro-1-methyl-1H-indol-3-yl)piperidin-1-yl)-2-morpholinobenzo[d]oxazole]	1 to 10 µM	10 to 50 µM
Cn1cc(C2CCN(c3cnc4nc(N5CCOCC5)sc4c3)CC2)c2cc(F)cnc21 [Example 109, 4-(6-(4-(5-fluoro-1-methyl-1H-pyrrolo[2,3-b]pyridin-3-yl)piperidin-1-yl)thiazolo[4,5-b]pyridin-2-yl)morpholine hydrochloride]	1 to 10 µM	10 to 50 µM
c1ccc2c(C3CCN(c4ccc5sc(N6CCOCC6)nc5c4)CC3)n[nH]c2c1 [Example 63, 4-(5-(4-(1H-indazol-3-yl)piperidin-1-yl)benzo[d]thiazol-2-yl)morpholine]		10 to 50 µM
Cn1cc(C2CCN(c3ccc4nc(N5CCOCC5)sc4n3)CC2)c2cc(F)cnc21 [Example 57, 4-(5-(4-(5-fluoro-1-methyl-1H-pyrrolo[2,3-b]pyridin-3-yl)piperidin-1-yl)thiazolo[5,4-b]pyridin-2-yl)morpholine]		10 to 50 µM
c1ccc2c(N3CCN(c4ccc5oc(N6CCOCC6)nc5c4)CC3)c[nH]c2c1 [Example 56, 5-(4-(1H-indol-3-yl)piperazin-1-yl)-2-morpholinobenzo[d]oxazole]		1 to 10 µM
c1ccc2c(C3CCN(c4ccc5sc(N6CCOCC6)nc5n4)CC3)n[nH]c2c1 [Example 62, 4-(5-(4-(1H-indazol-3-yl)piperidin-1-yl)thiazolo[4,5-b]pyridin-2-yl)morpholine]		1 to 10 µM
O=C(Nc1ccc2nc(N3CCOCC3)sc2c1)c1c[nH]c2ccc(F)cc12 [Example 17, 5-fluoro-N-(2-morpholinobenzo[d]thiazol-6-yl)-1H-indole-3-carboxamide]	< 1 µM	1 to 10 µM
c1ccc2c(C3CCN(c4cnc5nc(N6CCOCC6)sc5c4)CC3)n[nH]c2c1 [Example 41, 4-(6-(4-(1H-indazol-3-yl)piperidin-1-yl)thiazolo[4,5-b]pyridin-2-yl)morpholine]	1 to 10 µM	1 to 10 µM
Cn1cc(C2=CCN(c3ccc4oc(N5CCOCC5)nc4c3)CC2)c2cc(F)cnc21 [Example 32, 5-(4-(5-fluoro-1-methyl-1H-pyrrolo[2,3-b]pyridin-3-yl)-3,6-dihydropyridin-1(2H)-yl)-2-morpholinobenzo[d]oxazole]	< 1 µM	1 to 10 µM
c1ccc2c(C3CCN(c4ccc5nc(N6CCOCC6)oc5n4)CC3)c[nH]c2c1 [Example 101, 5-(4-(1H-indol-3-yl)piperidin-1-yl)-2-morpholinooxazolo[5,4-b]pyridine]		10 to 50 µM
Fc1ccc2[nH]cc(C3CCN(c4ccc5oc(N6CCOCC6)nc5c4)CC3)c2c1 [Example 69, 5-(4-(5-fluoro-1H-indol-3-yl)piperidin-1-yl)-2-morpholinobenzo[d]oxazole]		1 to 10 µM
c1ccc2c(C3CCN(c4cnc5sc(N6CCOCC6)nc5c4)CC3)n[nH]c2c1 [Example 42, 4-(6-(4-(1H-indazol-3-yl)piperidin-1-yl)thiazolo[5,4-b]pyridin-2-yl)morpholine]		10 to 50 µM
Fc1cnc2c(C3CCN(c4ccc5nc(N6CCOCC6)oc5c4)CC3)c[nH]c2c1 [Example 103, 6-(4-(6-fluoro-1H-pyrrolo[3,2-b]pyridin-3-yl)piperidin-1-yl)-2-morpholinobenzo[d]oxazole]		1 to 10 µM
O=C(Nc1ccc2nc(N3CCOCC3)oc2c1)c1n[nH]c2ccccc12 [Example 16, N-(2-morpholinobenzo[d]oxazol-6-yl)-1H-indazole-3-carboxamide]		10 to 50 µM

Next, values leading:

EC50 [1]	EC50 [2]	SMILES
1 to 10 µM	< 1 µM	c1ccc2c(C3CCN(c4ccc5oc(N6CCOCC6)nc5c4)C3)n[nH]c2c1 (centres unmarked) [Example 37, 5-(3-(1H-indazol-3-yl)pyrrolidin-1-yl)-2-morpholinobenzo[d]oxazole]
1 to 10 µM	1 to 10 µM	Cn1cc(C2CCN(c3ccc4nc(N5CCOCC5)oc4c3)CC2)c2cc(F)cnc21 [Example 111, 6-(4-(5-fluoro-1-methyl-1H-pyrrolo[2,3-b]pyridin-3-yl)piperidin-1-yl)-2-morpholinobenzo[d]oxazole hydrochloride]
1 to 10 µM	1 to 10 µM	c1ccc2c(C3CCN(c4ccc5nc(N6CCOCC6)sc5c4)CC3)n[nH]c2c1 [Example 44, 4-(6-(4-(1H-indazol-3-yl)piperidin-1-yl)benzo[d]thiazol-2-yl)morpholine]
1 to 10 µM	1 to 10 µM	c1ccc2c(C3CCN(c4ccc5oc(N6CCOCC6)nc5c4)C3)n[nH]c2c1 (centres unmarked) [Example 38, 5-(3-(1H-indazol-3-yl)pyrrolidin-1-yl)-2-morpholinobenzo[d]oxazole]
< 1 µM	< 1 µM	O=C(Nc1c[nH]c2ccccc12)c1ccc2oc(N3CCOCC3)nc2c1 [Example 7, N-(1H-indol-3-yl)-2-morpholinobenzo[d]oxazole-5-carboxamide]
< 1 µM	1 to 10 µM	c1cnc2[nH]cc(C3CCN(c4ccc5oc(N6CCOCC6)nc5c4)CC3)c2c1 [Example 20, 5-(4-(1H-pyrrolo[2,3-b]pyridin-3-yl)piperidin-1-yl)-2-morpholinobenzo[d]oxazole]
< 1 µM	< 1 µM	c1ccc2c(-c3cnn(-c4ccc5oc(N6CCOCC6)nc5c4)c3)c[nH]c2c1 [Example 9, 5-(4-(1H-indol-3-yl)-1H-pyrazol-1-yl)-2-morpholinobenzo[d]oxazole]
1 to 10 µM	1 to 10 µM	Cn1cc(C2CCN(c3ccc4oc(N5CCOCC5)nc4c3)C2)c2cc(F)cnc21 (centres unmarked) [Example 33, 5-(3-(5-fluoro-1-methyl-1H-pyrrolo[2,3-b]pyridin-3-yl)pyrrolidin-1-yl)-2-morpholinobenzo[d]oxazole]
< 1 µM	< 1 µM	C1=C(c2n[nH]c3ccccc23)CCN(c2ccc3oc(N4CCOCC4)nc3c2)C1 [Example 50, 5-(4-(1H-indazol-3-yl)-3,6-dihydropyridin-1(2H)-yl)-2-morpholinobenzo[d]oxazole]
< 1 µM	< 1 µM	c1ccc2c(C3CCN(c4cc5sc(N6CCOCC6)nc5cn4)CC3)c[nH]c2c1 [Example 24, 4-(6-(4-(1H-indol-3-yl)piperidin-1-yl)thiazolo[4,5-c]pyridin-2-yl)morpholine]
1 to 10 µM	1 to 10 µM	c1ccc2c(C3CCN(c4ccc5oc(N6CCOCC6)nc5n4)CC3)n[nH]c2c1 [Example 43, 5-(4-(1H-indazol-3-yl)piperidin-1-yl)-2-morpholinooxazolo[4,5-b]pyridine]
	1 to 10 µM	Cn1cc(C2CC3CN(c4ccc5oc(N6CCOCC6)nc5c4)CC3C2)c2cc(F)cnc21 (centres unmarked) [Example 112, 5-(5-(5-fluoro-1-methyl-1H-pyrrolo[2,3-b]pyridin-3-yl)hexahydrocyclopenta[c]pyrrol-2(1H)-yl)-2-morpholinobenzo[d]oxazole hydrochloride]
	1 to 10 µM	Fc1cnc2c(C3CCN(c4ccc5oc(N6CCOCC6)nc5c4)CC3)c[nH]c2c1 [Example 53, 5-(4-(6-fluoro-1H-pyrrolo[3,2-b]pyridin-3-yl)piperidin-1-yl)-2-morpholinobenzo[d]oxazole]
	1 to 10 µM	c1ccc2c(C3CCN(c4cnc5sc(N6CCOCC6)nc5c4)CC3)c[nH]c2c1 [Example 65, 4-(6-(4-(1H-indol-3-yl)piperidin-1-yl)thiazolo[5,4-b]pyridin-2-yl)morpholine]
	1 to 10 µM	c1ccc2c(C3CCN(c4ccc5nc(N6CCOCC6)oc5n4)CC3)n[nH]c2c1 [Example 64, 5-(4-(1H-indazol-3-yl)piperidin-1-yl)-2-morpholinooxazolo[5,4-b]pyridine]

Reference: US20230391774A1, “Novel Compounds” (AC Immune SA, priority 2020, published 2023)
